ChEMBL document CHEMBL1134725, “2-(Anilinomethyl)imidazolines as alpha(1)-adrenoceptor agonists: the identification of alpha(1A) subtype selective 2'-carboxylic acid esters and amides” (Bioorg Med Chem Lett, 2001)
pEC50, pIC50: −log10 of the molar value.

Key:
[1] = biological target: T1, Alpha-1A adrenergic receptor (Homo sapiens) (UniProt P35348); experiment: Efficacy against alpha 1A adrenoceptor in human expressed as phenylephrine response at the dose of 40 uM; format: functional
T1 sequence (whole entry): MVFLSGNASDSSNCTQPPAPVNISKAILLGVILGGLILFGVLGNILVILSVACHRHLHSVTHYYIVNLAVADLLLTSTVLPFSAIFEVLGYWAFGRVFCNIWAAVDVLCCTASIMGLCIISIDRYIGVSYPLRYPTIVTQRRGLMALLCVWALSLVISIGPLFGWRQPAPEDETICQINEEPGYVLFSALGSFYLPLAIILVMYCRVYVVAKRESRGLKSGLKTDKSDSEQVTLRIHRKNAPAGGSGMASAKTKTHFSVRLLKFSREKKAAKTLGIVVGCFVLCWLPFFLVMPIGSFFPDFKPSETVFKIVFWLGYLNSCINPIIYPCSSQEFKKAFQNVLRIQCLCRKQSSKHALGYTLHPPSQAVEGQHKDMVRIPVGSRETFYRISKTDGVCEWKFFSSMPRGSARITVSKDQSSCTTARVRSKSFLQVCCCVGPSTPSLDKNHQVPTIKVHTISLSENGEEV

[2] = biological target: T2, Alpha-1D adrenergic receptor (Homo sapiens) (UniProt P25100); experiment: Tested for efficacy against alpha 1D-adrenoceptor in human expressed as phenylephrine response at the dose of 40 uM; format: functional
T2 sequence (whole entry): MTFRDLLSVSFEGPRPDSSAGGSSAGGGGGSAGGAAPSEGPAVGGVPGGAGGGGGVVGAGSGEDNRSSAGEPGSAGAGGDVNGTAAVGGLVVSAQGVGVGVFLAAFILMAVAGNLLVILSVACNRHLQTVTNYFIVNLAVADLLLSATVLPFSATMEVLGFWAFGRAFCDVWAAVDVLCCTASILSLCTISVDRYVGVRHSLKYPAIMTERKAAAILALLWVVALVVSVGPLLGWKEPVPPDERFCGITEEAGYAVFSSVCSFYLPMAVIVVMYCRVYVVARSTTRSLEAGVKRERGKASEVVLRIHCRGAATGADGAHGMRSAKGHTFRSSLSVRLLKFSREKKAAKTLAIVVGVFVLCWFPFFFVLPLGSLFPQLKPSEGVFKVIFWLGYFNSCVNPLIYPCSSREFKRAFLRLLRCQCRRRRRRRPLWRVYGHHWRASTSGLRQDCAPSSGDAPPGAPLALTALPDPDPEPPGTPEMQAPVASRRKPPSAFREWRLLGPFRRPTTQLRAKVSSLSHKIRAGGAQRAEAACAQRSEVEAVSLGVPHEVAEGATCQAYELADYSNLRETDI

[3] = biological target: T3, Alpha-1D adrenergic receptor (Homo sapiens, UniProt P25100); experiment: Potency against cloned human alpha 1D-adrenoceptor expressed in rat-1 fibroblasts.; format: functional
T3 sequence (P25100 whole entry): T2 sequence (whole entry)

[4] = biological target: T4, Alpha-1A adrenergic receptor (Homo sapiens, UniProt P35348); experiment: Agonist potency against cloned human alpha 1A adrenoceptor expressed in rat-1 fibroblasts.; format: functional
T4 sequence (P35348 whole entry): T1 sequence (whole entry)

[5] = biological target: T5, Alpha-1B adrenergic receptor (Homo sapiens) (UniProt P35368); experiment: Efficacy against alpha 1B-adrenoceptor in human expressed as phenylephrine response at the dose of 40 uM.; format: functional
T5 sequence (whole entry): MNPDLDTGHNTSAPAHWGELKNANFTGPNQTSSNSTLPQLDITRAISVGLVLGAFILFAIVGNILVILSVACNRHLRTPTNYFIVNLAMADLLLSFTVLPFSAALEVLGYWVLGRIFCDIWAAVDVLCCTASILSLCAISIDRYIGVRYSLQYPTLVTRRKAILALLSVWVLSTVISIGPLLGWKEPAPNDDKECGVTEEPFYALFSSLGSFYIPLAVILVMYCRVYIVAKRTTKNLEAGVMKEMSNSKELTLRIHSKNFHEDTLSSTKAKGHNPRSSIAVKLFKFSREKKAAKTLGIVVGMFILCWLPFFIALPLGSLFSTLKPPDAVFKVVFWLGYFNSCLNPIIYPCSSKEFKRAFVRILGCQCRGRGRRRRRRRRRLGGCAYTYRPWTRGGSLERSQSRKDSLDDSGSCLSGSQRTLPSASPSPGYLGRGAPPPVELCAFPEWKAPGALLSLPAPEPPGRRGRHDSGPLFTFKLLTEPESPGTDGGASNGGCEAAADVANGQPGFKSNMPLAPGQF

[6] = biological target: T6, Alpha-1B adrenergic receptor (Homo sapiens, UniProt P35368); experiment: Potency against cloned human alpha 1B adrenoceptor expressed in rat-1 fibroblasts.; format: functional
T6 sequence (P35368 whole entry): T5 sequence (whole entry)

[7] = biological target: T6, Alpha-1B adrenergic receptor; experiment: Concentration required for 50% inhibition of binding against human Alpha-1B adrenergic receptor
[8] = biological target: T3, Alpha-1D adrenergic receptor; experiment: Concentration required for 50% inhibition of binding against human Alpha-1D adrenergic receptor
[9] = biological target: T4, Alpha-1A adrenergic receptor; experiment: Concentration required for 50% inhibition of binding against Alpha-1A adrenergic receptor in human

Structure (SMILES)	Max [1] [%]	Max [2] [%]	pEC50 [3]	pEC50 [4]	Max [5] [%]	pEC50 [6]	pIC50 [7]	pIC50 [8]	pIC50 [9]
CCOC(=O)c1ccccc1NCC1=NCCN1	104	41	7.20	7.90	105	6.80			
CC(C)COC(=O)c1ccccc1NCC1=NCCN1	68	59	6.60	6.30	90	7.10			
CCCNC(=O)c1ccccc1NCC1=NCCN1	104	69	6.80	8.10	77	7.10			
O=C(c1ccccc1NCC1=NCCN1)N1CCCC1	105		< 5.30	6.90	79	6.50			
CCC(CC)OC(=O)c1ccccc1NCC1=NCCN1	94		< 5.30	7.70		< 5.30			
O=C(OC1CCCCC1)c1ccccc1NCC1=NCCN1			< 5.30	< 5.30		< 5.30			
CNC(=O)c1ccccc1NCC1=NCCN1	104	115	8.00	8.60	99	8.80	6.16	7.05	6.67
O=C(c1ccccc1NCC1=NCCN1)N1CCCCC1	105	88	6.40	6.40	106	7.10			
CN(C)C(=O)c1ccccc1NCC1=NCCN1	104	58	6.70	7.70	93	7.10			
CC(C)NC(=O)c1ccccc1NCC1=NCCN1	102	59	6.50	7.30	95	6.90			
COC(=O)c1ccccc1NCC1=NCCN1	110	80	9.30	9.10	107	9.40			
CCNC(=O)c1ccccc1NCC1=NCCN1	102	33	7.10	7.90	64	6.70			
O=C(NC1CC1)c1ccccc1NCC1=NCCN1	99		< 5.30	7.80	50	6.60	5.65	5.77	5.98
CCC(C)NC(=O)c1ccccc1NCC1=NCCN1 (configuration not stated)	82		< 5.30	6.30		< 5.30			
CCN(C)C(=O)c1ccccc1NCC1=NCCN1	105	69	6.20	7.30	98	6.60	4.98	5.17	5.69
CC(C)OC(=O)c1ccccc1NCC1=NCCN1	100		< 5.30	8.50		< 5.30	5.75	5.70	6.65
CCC(C)OC(=O)c1ccccc1NCC1=NCCN1 (configuration not stated)	96		< 5.30	8.90		< 5.30			
O=C(NC1CCC1)c1ccccc1NCC1=NCCN1			< 5.30	< 5.30		< 5.30			
CC(C)(C)OC(=O)c1ccccc1NCC1=NCCN1	96		< 5.30	8.10	81	7.20			
CCN(CC)C(=O)c1ccccc1NCC1=NCCN1	105		< 5.30	7.50	32	5.70	5.23	5.18	6.07
CCCCOC(=O)c1ccccc1NCC1=NCCN1	114	31	7.80	8.00	63	7.60			
c1ccc(C2CC2)c(OCC2=NCCN2)c1 [CIRAZOLINE]	93	31		7.90	72	7.20			
Cc1cc(C(C)(C)C)c(O)c(C)c1CC1=NCCN1	74								
O=C(OC1CCCC1)c1ccccc1NCC1=NCCN1	58		< 5.30	7.40		< 5.30			
O=C(NC1CCCC1)c1ccccc1NCC1=NCCN1			< 5.30	< 5.30		< 5.30			
CC(C)CNC(=O)c1ccccc1NCC1=NCCN1	58	31	7.80	7.10	90	7.90			
c1ccc2c(CC3=NCCN3)cccc2c1 [NAPHAZOLINE]	72		< 5.30	7.20		< 5.30			
CCCCNC(=O)c1ccccc1NCC1=NCCN1	103		< 5.30	7.70		< 5.30	5.71	5.83	6.33
CCCN(CC)C(=O)c1ccccc1NCC1=NCCN1	115		< 5.30	7.00		< 5.30			
